Results reported in patent US11110098B2, “Methods and medicaments for the treatment of renal cell carcinoma” (University of Kansas, priority 2017, dated 2021).

Tests used:
[1] = test system: Caki-1 cells; test: Western blot of cell lysate, Caki-1 cells; type: cell-based, human; conditions: 48 h
Text: Tumors from mouse xenografts and cultured 786-O and Caki-1 cells were homogenized in SDS Laemmli buffer and loaded onto 10% SDS-polyacrylamide agarose gel electrophoresis gels, transferred to nitrocellulose membranes and blocked with 5% milk in TBST^32. Membranes were probed with primary antibody followed by wash and horseradish peroxidase secondary antibody application.

[2] = test system: Caki-1 cells; test: Annexin V-FITC/PI apoptosis/necrosis, Caki-1 cells; type: cell-based, human; conditions: 24 h
Description: (§1) Annexin V-FITC/PI staining was performed for quantification of apoptosis and necrotic cell death using FITC AnnexinV apoptosis detection kit I. Green FITC dye stains apoptotic cells whereas propidium iodide stains necrotic cells with red fluorescence. RCC cells were incubated with OPC31260 for 24 h and washed in cold PBS and resuspended in calcium containing binding buffer (10 mM HEPES, 140 mM NaCl, 5 mM CaCl2; pH 7.4) at a concentration of 1×10^6 cells/ml and stained for 15 min, with 5 μl Annexin V-FITC and 5 μl PI at 1 μg/ml (Cell signaling kit, USA). 10,000 cells were analyzed at an excitation wavelength of 488 nm and emission wavelengths of 530 nm for FITC fluorescence and 610 nm for PI fluorescence. The percentages of viable (Annexin V−PI−), early apoptotic (Annexin V+PI−), late apoptotic/necrotic (Annexin V+PI+) and necrotic cells (Annexin V-PI+) were evaluated with the CellQuestPro® software (Becton, Dickinson, Heidelberg, Germany).

[3] = test system: Caki-1 cells; test: Caki-1 xenograft tumor growth in nude mice; type: in vivo, Nu/Nu mice; conditions: OPC31260 30 and 60 mg/Kg
Description: Female Athymic Nude-Foxn1^nu mice (Nu/Nu mice), 7-8 weeks old and weighing ˜25 g were procured from Envigo/Harlan. All animal studies were carried out according to the protocols approved by the University of Kansas Medical Center Institutional Animal Care and Use Committee. Mice were subcutaneously injected on the right flank region with 1×10^6 Caki-1 cells in 100 μl of DMEM medium. […] Once the tumor volume reached ˜80-100 mm^3, mice were randomized into sub-groups based on the tumor volume. Animals were administered vehicle, OPC31260 (30 mg/Kg BWt.), OPC31260 (60 mg/Kg BWt) or dDAVP (1 μg/Kg BWt.) and vehicle (saline) by daily intraperitoneal injection, (60 mg/Kg BWt) or dDAVP (1 μg/Kg BWt.) and vehicle (saline) by daily intraperitoneal injection, or tolvaptan (120 mg/Kg BWt. in 1% aqueous solution of hydroxypropyl methylcellulose-dose derived from previous study^31) or vehicle by daily oral gavage for 28 days. Body weights and tumor volumes were measured every alternate day. At the end of the study, mice were injected with BRDU (100 mg/Kg BWt. by IP) 90 minutes before sacrifice. Tumors were harvested, photographed and weighed. Tumors were flash frozen or paraffin embedded for further analysis.

[4] = test system: 786-O cells; test: MTT cell viability, 786-O cells; type: cell-based; conditions: Homo sapiens, 786-0, 48 h, read-out: dose at which cell viability declined by 50%
Description: (§2) MTT assays were performed to measure cell viability. Briefly, exponentially growing 786-O and Caki-1 cells were seeded in 96 well plates. After 24 h, cells were incubated with different doses of OPC31260 for 48 h. The cells were then incubated in MTT solution (5 mg/mL) for 2 h, following which the MTT solution was removed and the intracellular purple formazan was solubilized in DMSO and quantified by spectrophotometry at […].

[5] = test system: Caki-1 cells; test: MTT cell viability, Caki-1 cells; type: cell-based; conditions: Homo sapiens, 48 h, read-out: dose at which cell viability declined by 50%
Description: as §2

[6] = test system: 786-O cells; test: Annexin V-FITC/PI apoptosis/necrosis, 786-O cells; type: cell-based, human; conditions: 24 h
Description: as §1

Cc1ccccc1C(=O)Nc1ccc(C(=O)N2CCCC(N(C)C)c3ccccc32)cc1 (centres unmarked) [OPC31260, 5-(dimethylamino)-1-[4-(2-methylbenzamido)benzoyl]-2,3,4,5-tetrahydro-1H-benzazepine]
pCREB levels [1]: dose-dependently reduced
pERK1/2 levels [1]: dose-dependently reduced
apoptosis [2]: increase in apoptosis
tumor volume ([3]; daily intraperitoneal injections, 28 days): failed to show a significant increase
tumors at sacrifice versus vehicle (tumor weights, FIG. 2) ([3]; daily intraperitoneal, after 28 days): significantly smaller than in the vehicle treatment group
IC50 [4]: 5 to 10 µM
IC50 [5]: 5 to 10 µM
apoptosis [6]: increase in apoptosis
